According to paper PMC7435853, “L-Malate (−2) Protonation State is Required for Efficient Decarboxylation to L-Lactate by the Malolactic Enzyme of Oenococcus oeni” (Molecules, 2020):

Target: T1, malolactic enzyme (MLE) (Oenococcus oeni, UniProt Q04DQ3)
T1 construct: gene OEOE_1564; full-length gene (1626 bp), His-tagged (HisTrap) from pET vector (text says pET28a and pET21a), E. coli BL21(DE3); reported dimer
T1 sequence (Q04DQ3 1-541): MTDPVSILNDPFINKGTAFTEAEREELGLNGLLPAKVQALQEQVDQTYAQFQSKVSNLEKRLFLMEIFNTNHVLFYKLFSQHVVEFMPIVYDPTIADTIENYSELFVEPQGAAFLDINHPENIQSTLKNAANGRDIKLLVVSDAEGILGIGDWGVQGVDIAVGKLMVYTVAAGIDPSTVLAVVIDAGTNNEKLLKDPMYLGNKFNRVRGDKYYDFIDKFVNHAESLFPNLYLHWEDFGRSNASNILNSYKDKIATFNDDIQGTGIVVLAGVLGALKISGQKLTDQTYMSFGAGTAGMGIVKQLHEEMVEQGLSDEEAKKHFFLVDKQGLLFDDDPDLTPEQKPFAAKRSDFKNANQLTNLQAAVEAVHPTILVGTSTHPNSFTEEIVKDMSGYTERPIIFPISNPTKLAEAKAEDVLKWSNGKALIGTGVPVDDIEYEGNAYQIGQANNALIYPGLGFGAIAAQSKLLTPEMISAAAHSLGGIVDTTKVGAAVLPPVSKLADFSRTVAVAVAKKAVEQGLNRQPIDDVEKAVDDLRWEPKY
Assay: isothermal titration calorimetry
Type: binding
Text: isothermal titration calorimetry on malolactic enzyme (MLE)

Q: Which Kd does the source give for `O=C(O)C[C@H](O)C(=O)O` [MAL^2−, L-malate (−2)] here?
A: 1290 nM

Q: For `O=C(O)C[C@H](O)C(=O)O` [MAL^−, L-malate (−1)], which Kd is on record?
A: 3190 nM
